# Assay results as given in patent US20160374967A1, “ORGANIC THIOPHOSPHATE ANTIRETROVIRAL AGENTS” (The Government of the U.S.A., as Represented by the …, priority 2006, published 2016).
# Where two headings read alike, the source gives them in different places.
# Legend:
# PHA-blasts [1] = settings: human, 72 h
# HIV-1BZ-167 = assay: HIV-1 replication in PHA-blasts by p24 ELISA, dose-response and combinations; type: cell-based; settings: for IC50: n=3, read-out: 50% Inhibition of virus replication
# HIV [2] = assay: microbe, parasite or virus in culture; type: cell-based; settings: for duration of action (anti-HIV, cell culture): cysteamine re-added every 12 hours, WR-1065 added once in 72 hour period
# [3] = mice, cited from earlier work
# [4] = cited from earlier work
# [5] = mouse, in vivo; cited from earlier work
# [6] = in vivo; cited from earlier work
# HIV [7] = type: cell-based; settings: human T-lymphocytes
# PHA blasts = assay: Viability of PHA blasts exposed to WR-1065 (no HIV), 72 h; type: cell-based, human
# TK6 cells = assay: 14-day survival of TK6 cells in continuous presence of WR-1065; type: cell-based, human
# PHA-blasts [8] = assay: Cell survival (cytotoxicity) by trypan blue in HIV-1 infected PHA-blasts
# [9] = rhesus macaques, duodenal 150 mg/kg BW of amifostine or phosphonol, cited from earlier work
# adenovirus = assay: Antiviral efficacy against adenovirus; settings: three different species of adenovirus
# [10] = metabolite after amifostine injection at 500-910 mg/m^2
# [11] = metabolite after amifostine injection
compound,measurement,setting,value
"Cc1cn([C@H]2C[C@H](N=[N+]=[N-])[C@@H](CO)O2)c(=O)[nH]c1=O [AZT, Zidovudine, reference compound]",target cell survival,PHA-blasts [1]; 7.75 μM,54±15%
same,inhibition of virus replication,"HIV-1BZ-167; AZT 0.8, 3.0 and 5.0 μM",85-96%
same,"dose for 50% reduction in HIV-1 replication, fold lower than that of WR-1065",HIV-1BZ-167; AZT versus WR-1065,about 1000 fold
same,inhibition at 7.75 µM,"HIV-1BZ-167; Human immunodeficiency virus 1, 7.75 μM, alone, mean±SD, n=4",96.7 ± 5.1%
same,IC50,"HIV-1BZ-167; Human immunodeficiency virus 1, dose-response 1.9-117.0 nM, mean±SE",3.5 ± 0.7 nM
same,HIV Viral P24,"HIV [2]; Experiment #1, 10 μM AZT, 72 h",0.13 pg/mL
same,HIV Viral P24,"HIV [2]; Experiment #2, 10 μM AZT, 72 h",9.07 pg/mL
same,HIV Viral P24,"HIV [2]; Experiment #3, 10 μM AZT, 72 h",2.9 pg/mL
same,inhibition at 10 µM,"HIV [2]; Human immunodeficiency virus 1, PBMC, 72 h, Experiment #1, 10 μM AZT, 72 h, read-out: Estimated percent inhibition",~100%
same,inhibition at 10 µM,"HIV [2]; Human immunodeficiency virus 1, PBMC, 72 h, Experiment #2, 10 μM AZT, 72 h, read-out: Estimated percent inhibition",94.9%
same,inhibition at 10 µM,"HIV [2]; Human immunodeficiency virus 1, PBMC, 72 h, Experiment #3, 10 μM AZT, 72 h, read-out: Estimated percent inhibition",~100%
"NCCCNCCSP(=O)(O)O [Amifostine, S-2-(3-aminopropyl)aminoethyl phosphorothioic acid]",maximally tolerated dose (MTD),[3]; i.p.,432 mg/kg BW
same,maximally tolerated dose (MTD),[3]; p.o.,720 mg/kg BW
same,cell survival,PHA-blasts [1]; 50 μM,53±10%
same,plasma T1/2,[4]; in vivo,~0.167 h
same,100% effective radioprotective dose,[5],about one half of the MTD
same,inhibition at 50 µM,"HIV-1BZ-167; Human immunodeficiency virus 1, 50 μM amifostine (with alkaline phosphatase), mean±SE, n=4",75.4 ± 8.3%
same,effects of single doses of up to 2700 mg/m^2,[6],no untoward effects
"NCCS [Cysteamine, reference compound]",suppression of HIV replication,HIV [2]; 200 μM,~100%
same,"duration of action (anti-HIV, cell culture)",HIV [2],very short
"NCCCNCCS [WR-1065, 2-(3-aminopropylamino)ethanethiol]",T1/2,[4]; [10],≥ 2 h
same,peak plasma level,[4]; [10],~100 µM
same,bioavailability,[4]; [11],high
same,tissue distribution,[4]; [11],widespread
same,intra-cellular concentration necessary to reduce HIV replication by ~100%,HIV [7],~50 picomoles/10^6 cells
same,HIV-1 growth inhibition,HIV-1BZ-167; 103-206 μM WR-1065,≥ 94%
same,inhibition at 26 µM,"HIV-1BZ-167; Human immunodeficiency virus 1, 26 μM WR-1065, mean SE, n=5",65 ± 7.5%
same,inhibition at 50 µM,"HIV-1BZ-167; Human immunodeficiency virus 1, 50 μM WR-1065, n=5",83.2 ± 18.6%
same,inhibition at 52 µM,"HIV-1BZ-167; Human immunodeficiency virus 1, 52 μM WR-1065, n=7",88.7 ± 5.5%
same,inhibition at 100 µM,"HIV-1BZ-167; Human immunodeficiency virus 1, 100 μM WR-1065, n=5",92 ± 11%
same,inhibition at 103 µM,"HIV-1BZ-167; Human immunodeficiency virus 1, 103 μM WR-1065, n=8",93.9 ± 3.1%
same,IC50,"HIV-1BZ-167; Human immunodeficiency virus 1, dose-response 2.5-103.0 μM, mean±SE",3100 ± 600 nM
same,effect on antiretroviral activity of 0.8-3.0 μM AZT,HIV-1BZ-167; WR-1065 at 26 μM,did not inhibit
same,% Viable Cells (compared to control),PHA blasts; 1 μM,83%
same,% Viable Cells (compared to control),PHA blasts; 5 μM,82%
same,% Viable Cells (compared to control),PHA blasts; 10 μM,90%
same,% Viable Cells (compared to control),PHA blasts; 50 μM,89%
same,% Viable Cells (compared to control),PHA blasts; 100 μM,63%
same,% Viable Cells (compared to control),PHA blasts; 500 μM,73%
same,% Viable Cells (compared to control),PHA blasts; 1000 μM,30%
same,14-day survival,TK6 cells; continuous 50-100 μM WR-1065,< 20%
same,14-day survival,"TK6 cells; continuous 50-100 μM WR-1065, 10 mg/ml aminoguanidine added from day 4",70-80%
same,cell survival,PHA-blasts [8]; 26 μM WR-1065,37%
same,cell survival,PHA-blasts [8]; 50 μM WR-1065,55±22%
same,cell survival,PHA-blasts [8]; 52 μM WR-1065,49%
same,cell survival,PHA-blasts [8]; 100 μM WR-1065,42±18%
same,cell survival,PHA-blasts [8]; 103 μM WR-1065,78%
same,"Concentration (μg/ml), plasma",[9]; 1 h after administration,6.21 µg/mL
same,"Concentration (μg/ml), plasma",[9]; 2 h after administration,4.14 µg/mL
same,"Concentration (μg/ml), plasma",[9]; 6 h after administration,2.07 µg/mL
same,in vitro anti-HIV potency relative to cysteamine,HIV [2],2 fold
same,HIV inhibition in human PBMCs (in words),"HIV [2]; Experiment #1, 1000 μM",inhibits HIV completely
same,HIV Viral P24,"HIV [2]; Experiment #1, 1000 μM WR-1065, 72 h",0.13 pg/mL
same,influence on the effect of 10 μM AZT,"HIV [2]; Experiment #1, 1000 μM WR-1065 with 10 μM AZT",does not appear to alter
same,HIV Viral P24,"HIV [2]; Experiment #2, 100 μM WR-1065, 72 h",8.92 pg/mL
same,HIV Viral P24,"HIV [2]; Experiment #2, 330 μM WR-1065, 72 h",9.31 pg/mL
same,HIV Viral P24,"HIV [2]; Experiment #2, 1000 μM WR-1065, 72 h",8.92 pg/mL
same,HIV infection inhibition in human PBMCs (in words),"HIV [2]; Experiment #2, concentrations as low as 100 μM",inhibit HIV infection completely
same,HIV Viral P24 pg/ml,"HIV [2]; Experiment #3, 5 μM WR-1065, 72 h","10,293.7 pg/ml"
same,HIV Viral P24,"HIV [2]; Experiment #3, 10 μM WR-1065, 72 h",911.2 pg/mL
same,HIV Viral P24,"HIV [2]; Experiment #3, 33 μM WR-1065, 72 h",503.2 pg/mL
same,HIV Viral P24,"HIV [2]; Experiment #3, 66 μM WR-1065, 72 h",33.2 pg/mL
same,inhibition at 1000 µM,"HIV [2]; Human immunodeficiency virus 1, PBMC, 72 h, Experiment #1, 1000 μM WR-1065, 72 h, read-out: Estimated percent inhibition",~100%
same,inhibition at 100 µM,"HIV [2]; Human immunodeficiency virus 1, PBMC, 72 h, Experiment #2, 100 μM WR-1065, 72 h, read-out: Estimated percent inhibition",94.9%
same,inhibition at 330 µM,"HIV [2]; Human immunodeficiency virus 1, PBMC, 72 h, Experiment #2, 330 μM WR-1065, 72 h, read-out: Estimated percent inhibition",94.7%
same,inhibition at 1000 µM,"HIV [2]; Human immunodeficiency virus 1, PBMC, 72 h, Experiment #2, 1000 μM WR-1065, 72 h, read-out: Estimated percent inhibition",94.9%
same,inhibition at 5 µM,"HIV [2]; Human immunodeficiency virus 1, PBMC, 72 h, Experiment #3, 5 μM WR-1065, 72 h, read-out: Estimated percent inhibition",76.8%
same,inhibition at 10 µM,"HIV [2]; Human immunodeficiency virus 1, PBMC, 72 h, Experiment #3, 10 μM WR-1065, 72 h, read-out: Estimated percent inhibition",98%
same,inhibition at 33 µM,"HIV [2]; Human immunodeficiency virus 1, PBMC, 72 h, Experiment #3, 33 μM WR-1065, 72 h, read-out: Estimated percent inhibition",98.9%
same,inhibition at 66 µM,"HIV [2]; Human immunodeficiency virus 1, PBMC, 72 h, Experiment #3, 66 μM WR-1065, 72 h, read-out: Estimated percent inhibition",99.9%
same,suppression of HIV replication,HIV [2]; concentration of less than 100 μM,> 99.9%
same,"duration of action (anti-HIV, cell culture)",HIV [2],long duration of action
same,antiviral efficacy,adenovirus,has antiviral efficacy
same,antiviral efficacy,influenza,has antiviral efficacy
